{
  "source": "patent US20110262567A1",
  "about": "“COMPOSITION FOR TREATING GOUT, CONTAINING ANGELICA GIGAS EXTRACT HAVING A XANTHINE OXIDASE-INHIBITING EFFECT AND AN INFLAMMATION-INDUCING ENZYME-INHIBITING EFFECT” (KOREA BIO HEALTH CO., LTD., priority 2008, published 2011)",
  "key": {"xanthine oxidase": {"biological_target": "xanthine oxidase (Homo sapiens, UniProt P47989)", "sequence (P47989 whole entry, species assumed)": "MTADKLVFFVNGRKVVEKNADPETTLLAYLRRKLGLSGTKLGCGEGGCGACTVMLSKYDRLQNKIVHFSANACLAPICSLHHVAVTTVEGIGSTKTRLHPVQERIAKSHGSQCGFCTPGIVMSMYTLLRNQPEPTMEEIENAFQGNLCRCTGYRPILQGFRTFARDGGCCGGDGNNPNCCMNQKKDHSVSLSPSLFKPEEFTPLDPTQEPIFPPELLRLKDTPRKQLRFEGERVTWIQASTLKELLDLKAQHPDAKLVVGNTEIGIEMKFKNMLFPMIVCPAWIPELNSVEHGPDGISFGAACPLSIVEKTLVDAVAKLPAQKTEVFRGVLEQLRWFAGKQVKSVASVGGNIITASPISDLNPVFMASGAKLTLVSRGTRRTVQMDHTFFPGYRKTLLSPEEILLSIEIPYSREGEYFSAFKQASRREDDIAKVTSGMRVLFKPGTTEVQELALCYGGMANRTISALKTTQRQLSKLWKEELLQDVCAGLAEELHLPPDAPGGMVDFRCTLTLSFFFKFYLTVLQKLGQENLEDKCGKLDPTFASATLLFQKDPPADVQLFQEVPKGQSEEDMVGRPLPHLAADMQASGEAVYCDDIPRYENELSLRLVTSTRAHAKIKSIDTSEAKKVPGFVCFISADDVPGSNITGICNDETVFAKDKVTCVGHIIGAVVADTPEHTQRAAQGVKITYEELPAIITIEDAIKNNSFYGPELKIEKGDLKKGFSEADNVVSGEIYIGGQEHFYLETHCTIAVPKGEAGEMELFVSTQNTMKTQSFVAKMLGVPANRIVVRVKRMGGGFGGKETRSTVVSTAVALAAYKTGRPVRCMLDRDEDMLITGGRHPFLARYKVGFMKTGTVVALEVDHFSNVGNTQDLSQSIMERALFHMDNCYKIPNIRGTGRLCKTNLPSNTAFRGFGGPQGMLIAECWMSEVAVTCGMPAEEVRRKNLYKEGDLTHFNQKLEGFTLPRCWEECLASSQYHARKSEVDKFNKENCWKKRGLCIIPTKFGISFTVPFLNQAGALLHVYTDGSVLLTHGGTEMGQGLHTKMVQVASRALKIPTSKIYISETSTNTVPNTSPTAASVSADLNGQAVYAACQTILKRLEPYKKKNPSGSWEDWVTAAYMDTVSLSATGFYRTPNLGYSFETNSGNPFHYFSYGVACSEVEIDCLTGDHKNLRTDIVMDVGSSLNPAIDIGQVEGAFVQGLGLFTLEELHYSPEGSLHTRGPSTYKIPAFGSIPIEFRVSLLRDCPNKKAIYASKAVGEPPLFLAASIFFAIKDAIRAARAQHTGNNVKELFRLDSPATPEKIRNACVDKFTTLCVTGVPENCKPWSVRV", "test": "Test on xanthine oxidase inhibition", "format": "biochemical", "experimental": "In this experiment, xanthine was used as a substrate and xanthine oxidase was used as an enzyme to perform an enzyme-substrate reaction.\n250 μl of 50 mM potassium phosphate buffer (pH 7.5), 385 μl of Angelica gigas Nakai extract solution (prepared by dilution with 50 mM potassium phosphate buffer (pH 7.5) until the final concentrations of decursin and decursinol angelate become 1, 5, 10, 17.5, 20, 50 μg/ml), and 330 μl of xanthine solution were mixed with each other to prepare a reaction solution.\n35 μl of xanthine oxidase solution (final concentration of 0.4 U/ml) was added to the reaction solution, and reacted in a 37° C. incubator for 15 min. Then, absorbance (Ab) was measured at 295 nm.\nEach reaction solution was also prepared using each Angelica gigas Nakai extract (each final concentration of decursin and decursinol angelate was 1, 5, 10, 17.5, 20, or 50 μg/ml) without addition of the xanthine oxidase solution. Further, in the absence of the Angelica gigas Nakai extract, each reaction solution was prepared with or without the xanthine oxidase solution. […]\nA: a change in absorbance in the absence of composition (Absorbance with enzyme−Absorbance without enzyme)\nB: a change in absorbance in the presence of composition (Absorbance with enzyme−Absorbance without enzyme)"}, "Cox-2": {"system": "Cox-2", "test": "Inflammation inhibition in hepatocytes of gout-induced animal model (Cox-2 western blot of liver)", "format": "in vivo", "settings": "rat, 50 mg/kg oral for 3 days after potassium oxonate; compared to hyperuricemia control group (model control)", "method": "In order to confirm the inhibitory effect of the Angelica gigas Nakai extract of the present invention on the inflammation-inducing enzyme Cox-2, the uricase inhibitor, potassium oxonate was administered to induce hyperuricemia.\nAs the experimental animal, 9-week old male sprague-dawley rats (250-280 g, Samtako, Inc.) were acclimated in a SPF chamber where the humidity and temperature were maintained at 50±5% and 24˜26° C. and feed and water were supplied ad libitum for 1 week, and then used for the experiment.\nIn the present experiment, the uricase inhibitor, potassium oxonate (150 mg/kg) was intraperitoneally administered one day before sample treatment, so as to induce hyperuricemia. The contents of uric acid before and after administration of potassium oxonate were measured and compared to each other, in order to confirm the hyperuricemia induction by administration of potassium oxonate.\nPotassium oxonate was suspended in 0.5% sodium carboxymethylcellulose (CMC-Na, 0.5% CMC with 0.1 M sodium acetate (pH5)), and used. […]\nAfter oral administration for 3 days, the experimental animals were fasted overnight, and then anesthetized with dry ice. […] 100 mg was dissected from the whole liver, and proteins were separated using a cell lysis buffer, and the protein concentration was measured by BCA protein assay. […]"}},
  "data": [
    {"compound": "Oc1ncnc2[nH]ncc12", "note": "[allopurinol]", "values": [
      {"measurement": "IC90", "setting": "xanthine oxidase", "result": 38, "unit": "µg/mL"},
      {"measurement": "Cox-2 expression in the hepatic tissue", "setting": "Cox-2", "result": "adversely increased"}
    ]}
  ]
}
